Test results taken from patent publication US20210161882A1, “DEPOT ADMINISTRATION OF ILOPERIDONE” (Vanda Pharmaceuticals Inc., priority 2018, published 2021).

Test: Crystalline iloperidone particle size determination (Malvern Mastersizer 2000 laser light scattering)
Type: physicochemical
Settings: wet dispersion in saturated 0.1% Tween 80, average of n=2 trials, each the average of 5 acquisitions
Description: Crystalline iloperidone particle sizes are determined in accordance with the following example. The Malvern Mastersizer 2000 (Malvern Instruments, Ltd., Malvern, UK) laser light scattering particle size analyzer and Hydro 2000 (Malvern Instruments, Ltd., Malvern, UK) wet sample dispersion unit are turned on, allowing time for the laser to warm up, e.g., for about 30 minutes. The PC is turned on, Mastersizer 2000 software is opened, and a file is created for storing results. An instrument verification check is performed according to SGS SOP EQP-525-10 Operation Preventative Maintenance and Performance Verification of the Mastersizer 2000. A new file for results storage is created, and the device is configured for Existing SOP for iloperidone. The parameters listed under the SOP are verified to confirm accuracy, namely: sample material name, iloperidone depot for injection; refractive index, 1.53, absorption, 0.1; dispersant medium, saturate 0.1% Tween 80 (Sigma Aldrich Co., St. Louis, Mo.) with 0.1% w/v sample; refractive index, 1.33; result model, general purpose; particle shape, irregular; sensitivity, normal; pump speed, 2000 RPM; sample measurement time, 12 seconds (12,000 snaps); background measurement time, 12 seconds (12,000 snaps); size range, 0.020 to 2000.000 μm; aliquot per SOP, 1; number of measurement cycles, 5 (report average); obscuration limits, 10-20%. Verification is made that the outlet tube of the dispersion unit is into the waste tank, and the tank is not full; the waste container is emptied on an as needed basis. […]
Samples are prepared by saturating 0.1% Tween 80 (Sigma-Aldrich Co., St. Louis, Mo.) polysorbate 80 with 0.1% w/v crystalline iloperidone. […] The SOP is started with the parameters for the sample so that the instrument is ready to perform measurements as soon as the sample is introduced to the Hydro 2000 unit. […] Each sample is measured twice (out of one preparation).
The resulting histogram is then evaluated. […]

average Dv10: 14-50 μm
average Dv50: 91-118 μm
average Dv90: 188-241 μm
SMILES: COc1cc(C(C)=O)ccc1OCCCN1CCC(c2noc3cc(F)ccc23)CC1 [crystalline iloperidone, 1-[4-[3-[4-(6-flouro-1,2-benzisoxazol-3-yl)-1-piperidinyl]propoxy]-3-methoxyphenyl]ethanone]
